The source of these data is ChEMBL document CHEMBL1201862, “PubChem BioAssay data set” (2004).

Among the test systems are UO-31; SF-268; UACC-62; SF-539; COLO 205; SK-MEL-2; NCI-H460; HL-60; CCRF-CEM; IGROV-1; SNB-75; SN12C; NCI-H23; HOP-92.
Holding throughout (experiment): NCI-60 cell line screen, 48 h

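The compound was tested at five concentrations on cells cultured in 96-well plates, with a 48-hour exposure period. The concentration for 50% growth inhibition is given as GI50.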 Activity calls are given as the source filed them. Cut-off read from the data, not from the text of the source: active = GI50 up to about 1.1 µM and inactive = higher.

Regarding `C=CC1(NS(=O)(=O)c2ccc(C)cc2)CCC(C(C)(C)C)CC1` (centres undefined), the GI50 is > 100 µM (inactive) in the experiment with UO-31; 27 µM (inactive) with SF-268; 28.5 µM (inactive) in the experiment on UACC-62; 64 µM (inactive) in the experiment with SF-539; > 100 µM (inactive) in the experiment with COLO 205; 60.7 µM (inactive) with SK-MEL-2. The GI50 in the experiment with NCI-H460 was > 100 µM (inactive); in the experiment on HL-60, 70.1 µM (inactive); in the experiment with CCRF-CEM it was > 100 µM (inactive); with IGROV-1, 76.2 µM (inactive); in the experiment on SNB-75, 17.8 µM (inactive); with SN12C, > 100 µM (inactive).

With `COc1ccc(/C=C2\C(=O)N(NC(C)=O)c3ccccc32)cc1`, the GI50 in the experiment with UO-31 was 37.4 µM (inactive); with NCI-H23, > 100 µM (inactive); with SF-268 it was 80.4 µM (inactive); in the experiment with UACC-62, > 100 µM (inactive); with SF-539 it was > 100 µM (inactive); in the experiment with COLO 205, > 100 µM (inactive). For the same molecule, the GI50 in the experiment with SK-MEL-2 is > 100 µM (inactive); with NCI-H460, > 100 µM (inactive); with CCRF-CEM, 49.7 µM (inactive); with HOP-92, > 100 µM (inactive); in the experiment on IGROV-1, > 100 µM (inactive); with SNB-75 it was 33.5 µM (inactive). For the same molecule, the GI50 with SN12C is > 100 µM (inactive).

As to `COc1cc([C@@H]2c3cc4c(cc3C(N)C3COC(=O)[C@@H]32)OCO4)cc(OC)c1O` (some centres undefined), the GI50 was 0.695 µM (active) in the experiment with UO-31; 0.373 µM (active) in the experiment on NCI-H23; 0.399 µM (active) in the experiment with SF-268; 0.037 µM (active) in the experiment with UACC-62; 0.189 µM (active) with SF-539; 0.13 µM (active) with COLO 205. Besides, the GI50 is 0.304 µM (active) with NCI-H460; 0.19 µM (active) in the experiment with HL-60; 0.339 µM (active) in the experiment on CCRF-CEM; 0.515 µM (active) in the experiment on IGROV-1; 0.133 µM (active) with SNB-75; 0.445 µM (active) in the experiment with SN12C.

For `COc1cc(C)c(O)c(C(=O)O)c1`, the GI50 in the experiment on UO-31, in the experiment with NCI-H23, in the experiment on SF-268, with UACC-62, in the experiment with COLO 205 and in the experiment on SK-MEL-2 was > 100 µM (inactive) throughout. Besides, the GI50 in the experiment on NCI-H460, in the experiment with CCRF-CEM, in the experiment on IGROV-1, in the experiment with SNB-75 and in the experiment with SN12C was > 100 µM (inactive) throughout.

With `O=C1c2ccccc2C(=O)c2c1cc(S(=O)(=O)O)c(O)c2O` [Alizarin Red S], the GI50 in the experiment on UO-31, in the experiment on NCI-H23, in the experiment with SF-268, with UACC-62, with SF-539 and in the experiment on COLO 205 was > 100 µM (inactive) in each case. Further, the GI50 in the experiment on SK-MEL-2 is 32.4 µM (inactive); in the experiment with NCI-H460, > 100 µM (inactive); in the experiment with CCRF-CEM it was > 100 µM (inactive); in the experiment with HOP-92 it was 90.8 µM (inactive); in the experiment on IGROV-1 it was > 100 µM (inactive); in the experiment with SNB-75 it was > 100 µM (inactive). The GI50 in the experiment with SN12C was > 100 µM (inactive).

As to `C=C[C@@]1(O)CCCC2=C(C(=O)OCC)CC[C@]21C`, the GI50 in the experiment with UO-31 was > 100 µM (inactive); in the experiment on NCI-H23, > 100 µM (inactive); in the experiment with SF-268 it was > 100 µM (inactive); in the experiment on SF-539, > 100 µM (inactive); in the experiment on COLO 205 it was > 100 µM (inactive); with SK-MEL-2, 90.8 µM (inactive). Besides, the GI50 with NCI-H460 was > 100 µM (inactive); in the experiment with HL-60, 36.1 µM (inactive); in the experiment with CCRF-CEM it was 44.7 µM (inactive); with HOP-92 it was > 100 µM (inactive); in the experiment with IGROV-1 it was > 100 µM (inactive); with SN12C, > 100 µM (inactive).

Turning to `C[C@]1(CO)CCC[C@@]2(C)C1CC[C@H]1CC3C[C@]12CC[C@]3(C)O` (some centres undefined), the GI50 with UO-31 was > 10 µM (inactive); in the experiment with NCI-H23, 83.8 µM (inactive); in the experiment with SF-268, > 100 µM (inactive); in the experiment on UACC-62, > 100 µM (inactive); with SF-539 it was 57.7 µM (inactive); in the experiment on COLO 205, 36.4 µM (inactive). The GI50 in the experiment with NCI-H460 was 19 µM (inactive); in the experiment on HL-60 it was 5.22 µM (inactive); with CCRF-CEM, 0.213 µM (active); in the experiment on HOP-92, > 100 µM (inactive); with IGROV-1, > 10 µM (inactive); in the experiment on SNB-75, 30.8 µM (inactive). Also, the GI50 with SN12C was > 100 µM (inactive).

For the molecule `CC1(C)C(c2ccccc2)=NN(O)c2ccccc21`, the GI50 in the experiment on NCI-H23, with SF-268, in the experiment with UACC-62, in the experiment with SF-539, with COLO 205 and in the experiment with SK-MEL-2 was > 100 µM (inactive) each time. The GI50 is > 100 µM (inactive) in the experiment on NCI-H460; > 100 µM (inactive) with HL-60; > 100 µM (inactive) with CCRF-CEM; > 100 µM (inactive) in the experiment on IGROV-1; 86.1 µM (inactive) in the experiment with SNB-75.

As for `CC1CCN(CCC(=O)CC(c2ccccc2)c2c(O)c3ccccc3oc2=O)CC1` (centres undefined), the GI50 in the experiment with UO-31, with NCI-H23, in the experiment with SF-268, in the experiment with UACC-62, in the experiment on SF-539 and in the experiment on COLO 205 was > 100 µM (inactive) in each case. Moreover, the GI50 in the experiment with SK-MEL-2 was > 100 µM (inactive); in the experiment with NCI-H460 it was > 100 µM (inactive); in the experiment with HL-60 it was > 100 µM (inactive); with CCRF-CEM, > 100 µM (inactive); in the experiment on IGROV-1 it was > 100 µM (inactive); in the experiment on SNB-75 it was 82.8 µM (inactive).

For `Cc1cc(C)c(C2[C@H]3C(=O)N(c4ccc(Cc5ccc(N6C(=O)[C@@H]7ON(c8ccccc8)C(c8c(C)cc(C)cc8C)[C@@H]7C6=O)cc5)cc4)C(=O)[C@H]3ON2c2ccccc2)c(C)c1` (some centres undefined), the GI50 with UO-31, with NCI-H23, in the experiment on SF-268, with UACC-62, in the experiment on SF-539 and in the experiment with COLO 205 was > 100 µM (inactive) throughout. The GI50 with SK-MEL-2 is > 100 µM (inactive); with NCI-H460, > 100 µM (inactive); with HL-60, 46.3 µM (inactive); in the experiment on CCRF-CEM, > 100 µM (inactive); in the experiment with IGROV-1, > 100 µM (inactive); with SNB-75 it was > 100 µM (inactive). For the same molecule, in the experiment on SN12C, the GI50 is > 100 µM (inactive).

As to `O=C1CCCN(c2ccccc2)N1`, the GI50 in the experiment on UO-31, with SF-268, in the experiment with UACC-62, in the experiment with SF-539, in the experiment with SK-MEL-2 and in the experiment on NCI-H460 was > 100 µM (inactive) in each case. Also, the GI50 with HL-60, in the experiment with IGROV-1, with SNB-75 and with SN12C was > 100 µM (inactive) in each case.

As to `CN1N=C2NCCNC3=NN(C)/C(=N/CC/N=C/1S2)S3`, the GI50 in the experiment with NCI-H23, in the experiment with SF-268, with UACC-62, with SF-539, in the experiment on COLO 205 and with NCI-H460 was > 100 µM (inactive) throughout. The GI50 in the experiment on HL-60, in the experiment on CCRF-CEM, in the experiment on HOP-92, in the experiment on IGROV-1, with SNB-75 and in the experiment on SN12C was > 100 µM (inactive) each time.
